pIC50: −log10 of the molar value. Values after ≈ are worked out from the molar mass of the structure shown. Like-named read-outs stand apart in the source and are kept apart here.
Key:
[1] = tested on: Indochina W-2 (parasitic malaria strain); assay: Growth of malaria strain Indochina W-2; type: cell-based; conditions: for pIC50: read-out: I50; for IC90: read-out: I90
Text: (§1) Determination of the semimaximum inhibiting concentration (I50) of typical representatives of the inventive compounds for the growth of parasitic malaria strains:
(§2) The determination took place according to the standard process (cf. WHO determination process).
(§3) The process according to Example 35 was repeated with the difference that the semimaximum inhibiting concentration of combinations of the inventive compound PH 22 with (2), (3) inhibitors of dihydrofolic acid reductase, (4) inhibitors of folate synthase and dihydrofolic acid reductase and (5), (6) inhibitors of DNA-synthesis were determined.

[2] = tested on: Sierra Leone D-6 (parasitic malaria strain); assay: Growth of malaria strain Sierra Leone D-6; type: cell-based; conditions: for pIC50: read-out: I50; for IC90: read-out: I90
Text: as §1, §2, §3

[3] = tested on: human mammary tumour cell line MDA-MB231; assay: Inhibition of cellnumber increase; type: cell-based; conditions: MDA-MB-231, read-out: 50% Inhibition of cellnumber increase, I50
Protocol: (§4) The semimaximum inhibition of cellnumber increase and thymidine incorporation into DNA was determined on the […], human mammary tumour cell line MDA-MB231 (cf. H. D. Soule et al, J. Nat. Cancer Inst., 51, p.1409, 1973) according to the method described by H. Seidenberger, G. Kranzfelder, S. Wappes, H. Schonenberger, W. Beck and M. Girth, Arch. Pharm. 314, 955, 1981 and M. Lippman, M. E. Monaco and G. Bolan, Cancer Res. 37, 1901, 1977.

[4] = tested on: human mammary tumour cell line MDA-MB231; assay: Inhibition of thymidine incorporation into DNA; type: cell-based; conditions: MDA-MB-231, read-out: 50% Inhibition of thymidine incorporation
Protocol: as §4

[5] = tested on: Mycobacterium lufu; assay: Minimum inhibiting concentration, M. lufu L 209; type: cell-based; conditions: Mycobacterium lufu
[6] = tested on: Mycobacterium tuberculosis H 37 RV; assay: Minimum inhibiting concentration, M. tuberculosis H37RV; type: cell-based; conditions: Mycobacterium tuberculosis; M. tub. H37RV
Protocol: The minimum inhibiting concentration of the commercially available and inventive substances given in Table 2 was determined according to the known standard process ("Methods for sensitivity testing of bacterial infectious germs", DIN 58940, part 5).
The determination was carried out on the following bacterial cultures:
2. Mycobacterium tuberculosis H 37 RV, FIB 2-85 JS
For culturing the bacterial cultures use was made of nutrient substrates according to Gottsacker and Lowenstein Jensen and culture media according to Lockemann or Dubos-Davis (cf. "Detection processes for mycobacteria from test material, III, culture medium formulations for culturing tuberculosis bacteria", 1978, Publisher: Deutsches Zentralkomitee zur Bekampfung der Tuberculose, Poppenhusenstrasse 14c, 2000 Hamburg 60).
In each case 5×10^-3 to 5×10^-5 mg, based on the wet weight, of the mycobacterial strains were incubated in 2 ml of culture fluid (Lockemann +0.5 wt/vol. % bovine serum albumen fraction 5) at 31° C. with a graded concentration of the particular inhibitor (dilution series). The culture tubes were read off after 8 to 15 days, as a function of the bacterial strain.
The MIC is the inhibitor concentration in μMol/l at which no propagation of the sewn cells is observed.

[7] = tested on: Mycobacterium marinum SN 1254; assay: Minimum inhibiting concentration, M. marinum SN1254; type: cell-based; conditions: M. marin. SN1254, read-out: Minimum inhibiting concentration
[8] = tested on: Mycobacterium smegmatis ATCC 607; assay: Minimum inhibiting concentration, M. smegmatis ATCC 607; type: cell-based; conditions: Mycolicibacterium smegmatis, ATCC607; M. smegm. ATCC 607; read-out: Minimum inhibiting concentration
[9] = tested on: Mycobacterium avium Patient Strain (Birk); assay: Minimum inhibiting concentration, M. avium Patient Strain (Birk); type: cell-based; conditions: Mycobacterium avium; M. avium Patient str.; read-out: Minimum inhibiting concentration
[10] = mouse, in vivo
Protocol: (§5) The acute toxicity after a single administration of PH 22, pyridine-2-aldehyde-thiosemicarbazone (Py-2-TSC), as well as Conteben (thiacetazone, 4-acetylaminobenzaldehyde-thiosemicarbazone) was determined according to H. J. Hapke, Toxikologie fur Veterinarmediziner, F. Enke Verlag, Stuttgart 1975. The test animals used were Wistar rats and NMRI white mice.

[11] = tested on: M. leprae; assay: In vitro propagation of M. leprae, thymidine incorporation; type: cell-based; conditions: Mycobacterium leprae, read-out: % Reduction Thymidine incorporation; for inhibition of growth at 50000 µg/mL: 50 mg/ml; for inhibition of growth at 100000 µg/mL: 100 mg/ml
Protocol: The inhibiting action was determined as a reaction of the thymidine absorption and the ATP content in M. Leprae suspensions, in the manner described by A. M. Dhople, Med. Sci. Res., 15, p.

[12] = tested on: M. leprae; assay: Propagation of M. leprae in mouse paws; type: in vivo
Protocol: The therapeutic action was determined as a reduction of the number of acid-resistant bacteria in the mouse paw according to C. C. Shepard, J. Experim. Met., 112, p. 445, 1960.
It is possible to detect the synergistic effect of the combinations, even under in vivo conditions.

[13] = tested on: Mycobacterium avium SN 304; assay: Minimum inhibiting concentration, M. avium SN 304; type: cell-based; conditions: SN304, M. avium SN 304, read-out: Minimum inhibiting concentration
[14] = in vivo; conditions: sc, Rat, subc., read-out: LD50
Protocol: as §5

[15] = Mouse i.p.; Cancer Res. 25, 1454 (1965); cited from earlier work
[16] = two months in feed, DDS 0.0001%, Rifampicin 0.001%, K-130 0.01%, Brodimoprim 0.01%, PH 22-26 0.05%

SMILES	pIC50 [1]	IC90 [1] [nM]	pIC50 [2]	IC90 [2] [nM]	pIC50 [3]	pIC50 [4]	MIC [5] [µM]	MIC [6] [µM]	MIC [7] [µM]	MIC [8] [µM]	MIC [13] [µM]	also measured
NC(=NNc1ccccn1)c1ccccn1 [PH 22-12, pyridine-2-carboxylic acid 2'-pyridyl-amidrazone]	5.20	41000	5.82	4300	6.34	6.48	–	–	–	–	–	–
c1ccc(C(=NNc2ccc3ccccc3n2)c2ccccn2)cc1 [PH 22-15, 2-benzoylpyridine-2'-quinolylhydrazone]	–	–	–	–	5.82	6.24	1.2 (≈ 0.389 µg/mL)	0.97 (≈ 0.315 µg/mL)	4.6 (≈ 1.49 µg/mL)	3.1 (≈ 1.01 µg/mL)	–	MIC [9]: 18.5 µM (≈ 6 µg/mL)
CCC(=NNc1nncc2ccccc12)c1ccccn1 [PH 22-25, ethyl-2-pyridylketone-1'-phthalazinylhydrazine]	6.40	700	6.52	450	6.71	6.98	2.7 (≈ 0.749 µg/mL)	36 (≈ 9.98 µg/mL)	101 (≈ 28 µg/mL)	10.8 (≈ 3 µg/mL)	–	–
Clc1cc(NN=Cc2ccccn2)ncn1 [PH 22-26, pyridine-2-aldehyde-6'-chloro-4'-pyrimidylhydrazone]	5.46	6200	5.70	3000	–	–	1.3 (≈ 0.304 µg/mL)	6.2 (≈ 1.45 µg/mL)	12.9 (≈ 3.01 µg/mL)	25.7 (≈ 6.01 µg/mL)	–	toxic effects [10]: No toxic effects were observed; inhibition of growth at 50000 µg/mL [11]: 30%; inhibition of growth at 100000 µg/mL [11]: 48%; % Inhibition of propagation of M. leprae in mouse paws ([12]; 0.1% in feed, 4 months): 40%; M. leprae/paw, treated mice ([12]; 0.1% in feed, 4 months (control 0.468)): 0.283 × 10^6; % Inhibition of propagation of M. leprae in mouse paws ([12]; 0.1% in feed, 6.5 months): 69%; % Inhibition of propagation of M. leprae in mouse paws ([12]; 0.1% in feed, 8.5 months): 77%; M. leprae/paw, treated mice ([12]; 0.1% in feed, 8.5 months (control 2.978)): 0.684 × 10^6; % Inhibition of propagation of M. leprae in mouse paws ([12]; 0.1% in feed, 12 months): 74%; M. leprae/paw, treated mice ([12]; 0.1% in feed, 12 months (control 3.682)): 0.945 × 10^6; % Inhibition of propagation of M. leprae in mouse paws [12, 16]: 0%
C(=NNc1ccc2ccccc2n1)c1ccccn1 [PQ 22, pyridine-2-aldehyde-2'-quinolylhydrazone]	5.96	1700	5.82	2000	6.49	6.80	10 (≈ 2.48 µg/mL)	28 (≈ 6.95 µg/mL)	12 (≈ 2.98 µg/mL)	21 (≈ 5.21 µg/mL)	24 (≈ 5.96 µg/mL)	–
NC(=S)NN=Cc1ccccn1 [Py-2-TSC, pyridine-2-aldehyde-thiosemicarbazone, reference compound]	–	–	–	–	–	–	40 (≈ 7.21 µg/mL)	–	–	–	–	LD50 [14]: 30 mg/kg; LD50 [15]: 40 mg/kg body weight
CO[C@H]1/C=C/O[C@@]2(C)Oc3c(C)c(O)c4c(O)c(c(/C=N/N5CCN(C)CC5)c(O)c4c3C2=O)NC(=O)/C(C)=C\C=C\[C@H](C)[C@H](O)[C@@H](C)[C@@H](O)[C@@H](C)[C@H](OC(C)=O)[C@@H]1C [Rifampicin]	–	–	–	–	–	–	–	–	–	–	39 (≈ 32.1 µg/mL)	MIC [9]: 5 µM (≈ 4.11 µg/mL); inhibition of growth at 50000 µg/mL [11]: 2%; inhibition of growth at 100000 µg/mL [11]: 0%; % Inhibition of propagation of M. leprae in mouse paws [12, 16]: 19%
[H]/N=C(/N)N[C@H]1[C@H](O)[C@@H](O)[C@H](O[C@@H]2O[C@@H](C)[C@](O)(C=O)[C@H]2O[C@@H]2O[C@@H](CO)[C@H](O)[C@@H](O)[C@@H]2NC)[C@@H](N/C(N)=N\[H])[C@@H]1O [Streptomycin]	–	–	–	–	–	–	–	–	–	–	55 (≈ 32 µg/mL)	–

Source: patent US4997835A, “Substituted 2-acylpyridine-α-(N)-hetarlyhydrazones and medicaments containing the same” (priority 1987, dated 1991)
